Data on eleven compounds can be found in paper PMC9005971, “Discovery of 2-(4-Acrylamidophenyl)-Quinoline-4-Carboxylic Acid Derivatives as Potent SIRT3 Inhibitors” (Frontiers in Chemistry, 2022).

What is called IC50 is the concentration that inhibits the measured activity by half.

The target of one assay is T1, SIRT2 (Homo sapiens, UniProt Q8IXJ6).
T1 sequence (Q8IXJ6 1-389): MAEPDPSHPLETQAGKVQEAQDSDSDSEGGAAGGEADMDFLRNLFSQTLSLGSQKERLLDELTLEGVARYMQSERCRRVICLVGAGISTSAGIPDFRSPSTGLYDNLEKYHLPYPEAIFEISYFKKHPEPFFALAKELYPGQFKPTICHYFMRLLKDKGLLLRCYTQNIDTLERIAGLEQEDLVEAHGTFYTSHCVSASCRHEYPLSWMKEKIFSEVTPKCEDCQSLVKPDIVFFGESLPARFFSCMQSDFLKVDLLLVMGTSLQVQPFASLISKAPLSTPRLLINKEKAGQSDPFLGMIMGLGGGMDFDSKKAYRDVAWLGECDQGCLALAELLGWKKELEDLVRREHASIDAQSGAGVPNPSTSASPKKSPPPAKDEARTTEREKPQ
The note with it: ref Galli et al., 2012; cited from earlier work.

Another assay deals with T2, SIRT1 (Homo sapiens, UniProt Q96EB6).
T2 sequence (Q96EB6 1-747): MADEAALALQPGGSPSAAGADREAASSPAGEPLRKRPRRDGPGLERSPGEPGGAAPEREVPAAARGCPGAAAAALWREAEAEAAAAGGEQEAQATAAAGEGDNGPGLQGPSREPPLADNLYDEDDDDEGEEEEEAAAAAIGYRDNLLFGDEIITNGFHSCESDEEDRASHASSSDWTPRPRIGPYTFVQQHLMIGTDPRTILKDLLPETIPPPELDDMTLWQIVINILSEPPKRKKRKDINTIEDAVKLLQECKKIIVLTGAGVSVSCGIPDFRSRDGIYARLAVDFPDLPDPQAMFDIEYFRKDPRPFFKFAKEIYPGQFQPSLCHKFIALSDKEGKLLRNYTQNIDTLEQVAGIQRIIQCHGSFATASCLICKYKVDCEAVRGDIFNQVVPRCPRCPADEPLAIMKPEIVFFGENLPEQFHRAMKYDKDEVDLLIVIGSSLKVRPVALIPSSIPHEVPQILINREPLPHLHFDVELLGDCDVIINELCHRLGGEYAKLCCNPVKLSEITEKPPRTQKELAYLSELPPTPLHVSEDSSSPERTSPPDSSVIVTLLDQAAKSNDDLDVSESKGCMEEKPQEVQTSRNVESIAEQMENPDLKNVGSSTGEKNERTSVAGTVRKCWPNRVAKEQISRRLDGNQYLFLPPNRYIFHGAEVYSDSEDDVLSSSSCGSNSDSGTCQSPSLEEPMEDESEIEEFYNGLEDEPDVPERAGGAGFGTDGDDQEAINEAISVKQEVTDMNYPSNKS
The note with it: ref Galli et al., 2012; cited from earlier work.

For another assay, the system named is THP-1 cells. As to the kind of experiment: In vitro antiproliferative CCK-8 assay, THP-1. In kind it is cell-based. The note with it: Homo sapiens; for inhibition at 1 µM: dose of 1 μM, mean of three experiments, read-out: THP-1 percentage inhibitory rate. The procedure:
(§1) The proliferation of THP-1, MOLM-13, SEM and MV4-11 cells was tested by CCK-8 assay. Briefly, cells were seeded in 96-well plate with about 5 × 10^3 cells in each well. The cells were treated with P6 or Ara-C (0–10 µM) after 24 h of incubation. CCK-8 reagent ([…]) was added to each well after 72 h of incubation, and cells were incubated at 37°C for 4 h. The light absorbance at 450 nm was measured by using an Opsys microplate reader (Dynex Technologirs, Chantilly, VA, United States). Results are illustrated as percent of cell viability normalized to DMSO-treated control cells.
Background: Tetrazolium dyes change colour on reduction, which living cells bring about.

Another assay has as its target T3, SIRT3 (Homo sapiens, UniProt Q9NTG7).
T3 sequence (Q9NTG7 1-399): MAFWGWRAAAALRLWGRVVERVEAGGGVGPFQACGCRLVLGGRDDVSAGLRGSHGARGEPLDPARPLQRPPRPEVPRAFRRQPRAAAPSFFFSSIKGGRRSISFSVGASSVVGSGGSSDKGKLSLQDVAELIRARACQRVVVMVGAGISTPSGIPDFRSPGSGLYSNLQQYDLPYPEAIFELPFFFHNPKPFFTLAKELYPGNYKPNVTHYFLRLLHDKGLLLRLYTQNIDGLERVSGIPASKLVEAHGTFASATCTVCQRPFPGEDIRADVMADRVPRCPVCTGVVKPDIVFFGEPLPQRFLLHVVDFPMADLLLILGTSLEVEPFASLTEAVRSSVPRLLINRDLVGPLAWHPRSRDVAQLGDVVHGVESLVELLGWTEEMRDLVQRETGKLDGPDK
As to the kind of experiment: SIRT3 enzyme inhibitory assay (fluorescence). It counts as biochemical. The note with it: dose of 10 μM; mean of three experiments; read-out: SIRT3 percentage inhibitory rate. The procedure: All of the enzymatic reactions were conducted at 37°C for 30 min. […] The compounds were diluted in 10% DMSO and 5 ul of the dilution was added to each reaction mixture (50 ul). The assay was performed by quantitating the amount of fluorescent product generated from the enzyme reaction. Fluorescence intensity is then analyzed at excitation wavelength of 350–360 nm and emission wavelength of 450–460 nm on a SpectraMax M5 microtiter plate reader. The IC50 values were calculated using Prism GraphPad software.

In another assay the test system is MV4-11 cells. Put plainly: In vitro antiproliferative CCK-8 assay, MV4-11. It counts as cell-based. The note with it: Homo sapiens, 72 h, read-out: IC50 growth inhibition MV4-11. How it is done:
as §1

In the next assay the test system is SEM cells. As to the kind of experiment: In vitro antiproliferative CCK-8 assay, SEM. It counts as cell-based. The conditions noted are these: 72 h, read-out: IC50 growth inhibition SEM. The procedure: as §1
The subject of assay [1] is THP-1, MOLM-13, SEM and MV4-11 cells. Put plainly: Cell apoptosis analysis, MLLr leukemic cells. In kind it is cell-based. The note with it: 72 h, flow cytometry. The procedure: THP-1, MOLM-13, SEM and MV4-11 cells were treated with P6 (0.45–4 µM) or Ara-C (0.1–2.0 µM) for 72 h, collected and resuspended in 1× binding buffer. Cells were incubated with FITC Annexin V and PI double labeling for 30 min in the dark at room temperature and measured by flow cytometry.

For the next assay, the system named is MOLM-13 cells. As to the kind of experiment: In vitro antiproliferative CCK-8 assay, MOLM-13. In kind it is cell-based. The conditions noted are these: Homo sapiens, 72 h, read-out: IC50 growth inhibition MOLM-13. How it is done:
as §1

Structures are written as SMILES.

As for `c1cncc(-c2c[nH]nn2)c1` [Compound 3-TYP], the IC50 was 92 nM on SIRT2 and 88 nM on SIRT1.

As for `C=CC(=O)Nc1ccc(-c2cc(C(=O)N3CCN(c4cccc(Cl)c4)CC3)c3ccccc3n2)cc1` [Compound P4, N-(4-{4-[4-(3-Chloro-phenyl)-piperazine-1-carbonyl]-quinolin-2-yl}-phenyl)-acrylamide], in the assay on THP-1 cells, the inhibition at 1 µM came to 57.9 ± 3.04%. The inhibition at 10 µM at SIRT3 was determined as 21.8 ± 1.62%.

On to `C=CC(=O)Nc1ccc(-c2cc(C(=O)Nc3cccc(OC)c3)c3ccccc3n2)cc1` [Compound P21, 2-(4-Acryloylamino-phenyl)-quinoline-4-carboxylic acid (3-methoxy-phenyl)-amide], for which the inhibition at 1 µM in the assay with THP-1 cells worked out at 35.4 ± 1.58%. Also, the inhibition at 10 µM at SIRT3 was found to be 22.2 ± 1.72%.

As to `C=CC(=O)Nc1ccc(-c2cc(C(=O)N3CCN(c4ccc(F)cc4)CC3)c3ccccc3n2)cc1` [Compound P1], the inhibition at 1 µM with THP-1 cells was found to be 32.5 ± 2.56%. Also, at SIRT3, the inhibition at 10 µM was 20.2 ± 1.22%.

On to `C=CC(=O)Nc1ccc(-c2cc(C(=O)Nc3ccc(CC)cc3)c3ccccc3n2)cc1` [Compound P13, 2-(4-Acryloylamino-phenyl)-quinoline-4-carboxylic acid (4-ethyl-phenyl)-amide], for which the inhibition at 1 µM in the assay with THP-1 cells was found to be 59.9 ± 3.27%. The inhibition at 10 µM at SIRT3 is 40.2 ± 2.91%.

For the compound `Nc1ccn([C@@H]2O[C@H](CO)[C@@H](O)[C@@H]2O)c(=O)n1` [Ara-C, Cytarabine, reference compound], the IC50 was found to be 520 nM with THP-1 cells (72 h, CCK-8, read-out: IC50 growth inhibition THP-1); 540 nM in the assay with MV4-11 cells; 60 nM with SEM cells; 60 nM in the assay on MOLM-13 cells. For the same compound, in the assay with THP-1 cells, the inhibition at 1 µM came to 80.4 ± 3.22%. Moreover, in assay [1], the induction of apoptosis entry is given as “obvious apoptosis”.

On to `C=CC(=O)Nc1ccc(-c2cc(C(=O)Nc3ccc(OC)cc3)c3ccccc3n2)cc1` [Compound P16, 2-(4-Acryloylamino-phenyl)-quinoline-4-carboxylic acid (4-methoxy-phenyl)-amide], for which the inhibition at 1 µM with THP-1 cells amounted to 13.3 ± 1.23%. On SIRT3, the inhibition at 10 µM is 28.4 ± 1.85%.

For the compound `C=CC(=O)Nc1ccc(-c2cc(C(=O)N3CCN(CCc4ccccc4)CC3)c3ccccc3n2)cc1` [Compound P9, N-{4-[4-(4-Phenethyl-piperazine-1-carbonyl)-quinolin-2-yl]-phenyl}-acrylamide], in the assay with THP-1 cells, the inhibition at 1 µM was 11.7 ± 0.88%. The inhibition at 10 µM at SIRT3 was 30.2 ± 1.94%.

For `C=CC(=O)Nc1ccc(-c2cc(C(=O)Nc3ccc(Br)cc3)c3ccccc3n2)cc1` [Compound P10, 2-(4-Acryloylamino-phenyl)-quinoline-4-carboxylic acid (4-bromo-phenyl)-amide], in the assay with THP-1 cells, the inhibition at 1 µM came to 44.3 ± 1.96%. For the same compound, the inhibition at 10 µM at SIRT3 stood at 26.8 ± 1.88%.

For the compound `C=CC(=O)Nc1ccc(-c2cc(C(=O)N3CCN(c4ccccc4OC)CC3)c3ccccc3n2)cc1` [Compound P8, N-(4-{4-[4-(2-Methoxy-phenyl)-piperazine-1-carbonyl]-quinolin-2-yl}-phenyl)-acrylamide], in the assay on THP-1 cells, the inhibition at 1 µM was found to be 73.7 ± 3.74%. Also, on SIRT3, the inhibition at 10 µM turned out to be 45.5 ± 3.67%.

With `C=CC(=O)Nc1ccc(-c2cc(C(=O)Nc3ccc4c(c3)OCO4)c3ccccc3n2)cc1` [Compound P20, 2-(4-Acryloylamino-phenyl)-quinoline-4-carboxylic acid benzo [1,3]dioxol-5-ylamide], in the assay with THP-1 cells, the inhibition at 1 µM was 28.1 ± 1.76%. Besides, the inhibition at 10 µM on SIRT3 was determined as 45.1 ± 2.55%.
